“And” between values parts separate entries of the source, which are not always exact repeats. Identical values can stand only once. The source made the active and inactive calls. The rule behind the calls is not given here.
Columns and labels:
[1] = target: T1, 5-hydroxytryptamine receptor 2C (Homo sapiens) (UniProt P28335); assay: Agonist activity at 5-HT2CR (unknown origin) stably expressed in HEK293 cells at 10 to 100 uM measured after 1 hr by fluorescence based Ca2+/Fluo-4 assay; type: cell-based; details: filed as agonist, dose 10-100 µM
T1 sequence (whole entry): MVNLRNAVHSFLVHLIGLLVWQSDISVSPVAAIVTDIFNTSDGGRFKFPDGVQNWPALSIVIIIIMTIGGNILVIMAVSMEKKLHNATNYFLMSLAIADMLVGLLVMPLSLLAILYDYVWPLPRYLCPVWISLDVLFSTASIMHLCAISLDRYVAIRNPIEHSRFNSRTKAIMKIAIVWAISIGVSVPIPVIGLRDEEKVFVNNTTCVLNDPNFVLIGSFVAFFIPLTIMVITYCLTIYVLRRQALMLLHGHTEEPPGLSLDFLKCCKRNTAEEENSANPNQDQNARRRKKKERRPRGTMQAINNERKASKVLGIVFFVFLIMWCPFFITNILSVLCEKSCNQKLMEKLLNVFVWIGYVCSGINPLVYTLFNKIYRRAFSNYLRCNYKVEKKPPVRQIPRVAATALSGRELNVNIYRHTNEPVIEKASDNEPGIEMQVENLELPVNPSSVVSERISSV

[2] = target: 5-hydroxytryptamine receptor 2A (Homo sapiens, UniProt P28223); assay: Agonist activity at 5-HT2AR (unknown origin) stably expressed in HEK293 cells measured after 1 hr by fluorescence based Ca2+/Fluo-4 assay; type: cell-based
Chain of 5-hydroxytryptamine receptor 2A (P28223 whole entry): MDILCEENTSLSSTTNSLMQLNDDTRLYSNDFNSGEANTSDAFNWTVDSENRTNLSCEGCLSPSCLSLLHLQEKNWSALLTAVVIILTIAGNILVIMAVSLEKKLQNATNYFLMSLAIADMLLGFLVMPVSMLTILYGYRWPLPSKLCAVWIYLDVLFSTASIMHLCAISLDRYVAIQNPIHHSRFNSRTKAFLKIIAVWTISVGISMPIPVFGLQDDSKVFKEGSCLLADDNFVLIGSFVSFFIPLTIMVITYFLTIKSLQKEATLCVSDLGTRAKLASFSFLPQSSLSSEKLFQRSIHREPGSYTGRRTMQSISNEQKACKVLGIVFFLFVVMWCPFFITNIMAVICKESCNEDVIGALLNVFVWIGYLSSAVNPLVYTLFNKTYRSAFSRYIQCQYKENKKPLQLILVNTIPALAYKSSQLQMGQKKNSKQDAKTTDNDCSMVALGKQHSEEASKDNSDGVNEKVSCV

[3] = target: T1, 5-hydroxytryptamine receptor 2C (Homo sapiens); assay: Agonist activity at 5-HT2CR (unknown origin) stably expressed in HEK293 cells at 30 to 100 uM measured after 1 hr by fluorescence based Ca2+/Fluo-4 assay; type: cell-based; details: filed as agonist, dose 30-100 µM
[4] = target: T1, 5-hydroxytryptamine receptor 2C (Homo sapiens); assay: Agonist activity at 5-HT2CR (unknown origin) stably expressed in HEK293 cells assessed as maximal response measured after 1 hr by fluorescence based Ca2+/Fluo-4 assay relative to control; type: cell-based; details: filed as agonist
[5] = target: T2, 5-hydroxytryptamine receptor 2C (Homo sapiens, UniProt P28335)
T2 sequence (P28335 whole entry): T1 sequence (whole entry)
Description: Agonist activity at 5-HT2CR (unknown origin) stably expressed in HEK293 cells measured after 1 hr by fluorescence based Ca2+/Fluo-4 assay

Row | SMILES | Activity [1] | EC50 ([2]; read-out: EC50) [µM] | EC50 ([2]; read-out: pEC50 (converted)) [µM] | Activity [3] | Rmax [4] [%] | EC50 [5]
1 | COc1cc(C[C@@H]2CCC[C@@H](c3ccccc3O)N2)c(OC)cc1C#N | Active | 0.091 |  |  |  | 
2 | COc1cc(CC2CCCC(c3ccccc3O)N2)c(OC)cc1C#N (centres undefined) |  | 2.7 | 3.55 | Active |  | 
3 | COc1cc(C[C@H]2CCC[C@H](c3ccccc3O)N2)c(OC)cc1C#N | Active | 0.93 |  |  |  | 
4 | COc1cc(CCNCc2ccccc2O)c(OC)cc1C#N |  |  |  |  | 78 | 0.178 µM and 0.17 µM

From ChEMBL document CHEMBL5252620, “Introducing Conformational Restraints on 25CN-NBOH: A Selective 5-HT2A Receptor Agonist” (ACS Med Chem Lett, 2023)
